In US9834558B2, “Substituted bridged urea analogs as sirtuin modulators” (GLAXOSMITHKLINE LLC, priority 2013, dated 2017):
Where a name gives a salt, the structure may show the parent alone. Read-outs that look alike come from different tables or passages of the source. One block for each molecule: values may come before it.

Target: T1, SIRT1 (Homo sapiens, UniProt Q96EB6)
T1 sequence (Q96EB6 1-747): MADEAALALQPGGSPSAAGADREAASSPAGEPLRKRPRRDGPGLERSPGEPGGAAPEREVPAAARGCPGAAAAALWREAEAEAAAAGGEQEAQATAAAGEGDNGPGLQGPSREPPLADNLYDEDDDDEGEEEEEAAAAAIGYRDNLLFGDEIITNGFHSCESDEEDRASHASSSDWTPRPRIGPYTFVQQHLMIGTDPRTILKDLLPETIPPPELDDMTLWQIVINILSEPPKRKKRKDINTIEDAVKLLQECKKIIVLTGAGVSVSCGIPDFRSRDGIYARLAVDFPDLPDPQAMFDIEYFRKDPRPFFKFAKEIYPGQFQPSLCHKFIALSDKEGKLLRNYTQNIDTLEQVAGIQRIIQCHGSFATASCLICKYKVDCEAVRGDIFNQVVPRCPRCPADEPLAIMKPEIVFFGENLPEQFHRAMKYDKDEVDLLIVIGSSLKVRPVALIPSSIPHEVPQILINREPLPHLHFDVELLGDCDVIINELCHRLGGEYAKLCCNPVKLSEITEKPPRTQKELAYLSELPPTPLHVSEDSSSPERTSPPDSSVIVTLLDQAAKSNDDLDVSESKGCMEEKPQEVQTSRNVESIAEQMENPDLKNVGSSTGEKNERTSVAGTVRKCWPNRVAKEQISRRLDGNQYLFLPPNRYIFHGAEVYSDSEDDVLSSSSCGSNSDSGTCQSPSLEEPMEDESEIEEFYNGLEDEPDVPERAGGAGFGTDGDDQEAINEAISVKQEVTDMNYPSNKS
Assay: Trp mass spectrometry assay of SIRT1 activation
Format: biochemical
Conditions: for TRP Activity (EC1.5): EC1.5 = concentration that results in 150% activation of SIRT1
Description: Mass spectrometry based assays were used to identify modulators of SIRT1 activity. […] The peptide was labeled with the fluorophore STMR (excitation 540 nm/emission 580 nm) at the C-terminus. The sequence of the peptide substrate was based on p53 with several modifications. In addition, the methionine residue naturally present in the sequence was replaced with the norleucine because the methionine may be susceptible to oxidation during synthesis and purification. The Trp based assay utilized a peptide having an amino acid residues as follows: Ac-R-H-K-K(Ac)-W-NH2 (SEQ ID NO: 2).
The Trp mass spectrometry assay was conducted as follows. 0.5 μM peptide substrate and 120 μM βNAD^+ were incubated with 10 nM SIRT1 for 25 minutes at 25° C. in a reaction buffer (50 mM HEPES pH 7.5, […], 1 mM DTT, 0.05% BSA). The SIRT1 protein was obtained by cloning the SirT1 gene into a T7-promoter containing vector, which was then expressed in BL21(DE3) bacterial cells and purified as described in further detail below. Test compound was added at varying concentrations to this reaction mixture and the resulting reactions were monitored. After the 25 minute incubation with SIRT1, 10 μL of 10% formic acid was added to stop the reaction. The resulting reactions were sealed and frozen for later mass spec analysis. The relative SIRT1 activity was then determined by measuring the amount of O-acetyl-ADP-ribose (OAADPR) formed (or, alternatively, the amount of deacetylated Trp peptide generated) by the NAD-dependent sirtuin deacetylation reaction in the presence of varying concentrations of the test compound versus control reactions lacking the test compound. The degree to which the test agent activated deacetylation by SIRT1 was expressed as EC1.5 (i.e., the concentration of compound required to increase SIRT1 activity by 50% over the control lacking test compound), and Percent Maximum Activation (i.e., the maximum activity relative to control (100%) obtained for the test compound).
This time point was the same as that used for test compounds and, within the linear range, the endpoint represents a change in velocity.
For the above assay, SIRT1 protein was expressed and purified as follows. The SirT1 gene was cloned into a T7-promoter containing vector and transformed into BL21(DE3). The protein was expressed by induction with 1 mM IPTG as an N-terminal His-tag fusion protein at 18° C. overnight and harvested at 30,000×g. Cells were lysed with lysozyme in lysis buffer (50 mM Tris-HCl, 2 mM Tris[2-carboxyethyl]phosphine (TCEP), 10 μM ZnCl2, 200 mM NaCl) and further treated with sonication for 10 min for complete lysis. The protein was purified over a Ni-NTA column (Amersham) and fractions containing pure protein were pooled, concentrated and run over a sizing column (Sephadex S200 26/60 global). The peak containing soluble protein was collected and run on an Ion-exchange column (MonoQ). Gradient elution (200 mM-500 mM NaCl) yielded pure protein. This protein was concentrated and dialyzed against dialysis buffer (20 mM Tris-HCl, 2 mM TCEP) overnight. The protein was aliquoted and frozen at −80° C. until further use.
“NT” means not tested; “ND” means not determinable.

[1] = Trp mass spectrometry assay, EC1.5 = concentration of test compound that results in 150% activation of SIRT1
[2] = concentration giving 150% activation of SIRT1, Trp peptide substrate
[3] = Trp peptide assay, maximum activity relative to control (100%), read-out: TRP MAX RESP (percent maximum fold activation)
[4] = Trp mass spectrometry assay, concentration of test compound giving 150% activation of SIRT1

Structure (SMILES): O=C(Nc1cnccn1)N1c2nc(-c3cccc(Cl)c3)cc(O)c2N2CCC[C@H]1C2 [Example 443]
Tryp AVG EC1.5 (μM) [1]: B (B (EC1.5 1-25 μM))
Emax (Trp mass spectrometry assay, percent maximum fold activation of SIRT1, read-out: Tryp % Fold Act): > 150%

Structure (SMILES): O=C(Nc1cncc(-c2cnco2)c1)N1c2nc(-c3cncc(F)c3)ccc2N2CC[C@H]1C2 [Example 716]
Tryp AVG EC1.5 (μM) [2]: B (B (EC1.5 1-25 μM))

Structure (SMILES): CC(C)(C)OC(=O)NCCn1cc(-c2cccc(NC(=O)N3c4nc(-c5cccc(C(F)(F)F)c5)ccc4N4CCC[C@H]3C4)c2)nn1 [Example 604]
Tryp AVG EC1.5 (μM) [1]: A (A (EC1.5<1 μM))

Structure (SMILES): FC(F)(F)c1cccc(-c2ccc3c(n2)N(C(=S)Nc2cccc(-c4cnco4)c2)[C@H]2CCN3C2)c1 [Example 763]
Tryp AVG EC1.5 (μM) [2]: A (A (EC1.5<1 μM))

Structure (SMILES): O=C(Nc1cccc(-c2cnco2)n1)N1c2nc(-c3cccc(C(F)(F)F)c3)ccc2N2CCC1CC2 [Example 596]
Tryp AVG EC1.5 (μM) [1]: A (A (EC1.5<1 μM))

Structure (SMILES): C[C@H]1CN(c2ccc3c(n2)N(C(=O)Nc2cnccn2)[C@H]2CCN3C2)C[C@H](C)O1 [(9S)-5-[(2S,6S)-2,6-dimethylmorpholin-4-yl]-N-(pyrazin-2-yl)-1,6,8-triazatricyclo[7.2.1.0^{2,7}]dodeca-2(7),3,5-triene-8-carboxamide]
TRP Activity (EC1.5) (Trp peptide assay): B (B (EC1.5 1-25 μM))
Emax [3]: > 150%

Structure (SMILES): O=C(Nc1cncc(F)c1)N1c2nc(N3CC[C@H](F)C3)ccc2S(=O)(=O)N2CC[C@H]1C2 [Example 469]
Tryp AVG EC1.5 (μM) [1]: C (C (EC1.5>25 μM))

Structure (SMILES): C#Cc1ccc(NC(=O)N2c3nc(-c4cccc(C5(C(F)(F)F)N=N5)c4)ccc3N3CC[C@H]2C3)nc1 [Example 803]
Tryp AVG EC1.5 (μM) [2]: A (A (EC1.5<1 μM))

Structure (SMILES): CCCC(=O)c1cccc(NC(=O)N2c3nc(-c4cccc(C(F)(F)F)c4)ccc3N3CC[C@H]2C3)c1 [Example 736]
Tryp AVG EC1.5 (μM) [2]: A (A (EC1.5<1 μM))

Structure (SMILES): COc1cc(-c2cccc(Cl)c2)nc2c1N1CC[C@@H](C1)N2C(=O)Nc1cnccn1 [Example 396]
Tryp AVG EC1.5 (μM) [4]: A (A (EC1.5<1 μM))

Structure (SMILES): CC(C)(C)OC(=O)NCCCc1ccc(NC(=O)N2c3nc(-c4cccc(C(F)(F)F)c4)ccc3N3CCC[C@H]2C3)cc1-c1cnco1 [Example 752]
Tryp AVG EC1.5 (μM) [2]: A (A (EC1.5<1 μM))

Structure (SMILES): O=C(Nc1ccncn1)N1c2nc(N3CCCN(CC(F)(F)F)CC3)ccc2N2CCC[C@H]1C2 [Example 491]
Tryp AVG EC1.5 (μM) [1]: A (A (EC1.5<1 μM))

Structure (SMILES): Cc1cc(-c2ccc3c(n2)N(C(=O)Nc2ncnc4[nH]nnc24)[C@H]2CCN3C2)ccn1 [(9S)-5-(2-methylpyridin-4-yl)-N-{3H-[1,2,3]triazolo[4,5-d]pyrimidin-7-yl}-1,6,8-triazatricyclo[7.2.1.0^{2,7}]dodeca-2,4,6-triene-8-carboxamide]
TRP Activity (EC1.5) (Trp peptide assay): C (C (EC1.5>25 μM))
Emax [3]: < 150%

Structure (SMILES): C#CCCCNc1nccc(NC(=O)N2c3nc(-c4ccc(C5(C(F)(F)F)N=N5)cc4)ccc3N3CC[C@H]2C3)n1 [Example 798]
Tryp AVG EC1.5 (μM) [2]: A (A (EC1.5<1 μM))
Emax (percent maximum fold activation of SIRT1, Trp peptide substrate, read-out: Tryp % Fold Act): > 150%

Structure (SMILES): CS(=O)(=O)Nc1cccc(NC(=O)N2c3nc(-c4cccc(C(F)(F)F)c4)ccc3N3CC[C@H]2C3)c1 [Example 642]
Tryp AVG EC1.5 (μM) [2]: A (A (EC1.5<1 μM))

Structure (SMILES): Cc1nc(NC(=O)N2c3nc(-c4cncc(Cl)c4)ccc3N3CCC[C@H]2C3)sc1C [Example 402]
Tryp AVG EC1.5 (μM) [4]: A (A (EC1.5<1 μM))

Structure (SMILES): O=C(NCCc1ccccc1)N1c2nc(-c3cccc(C(F)(F)F)c3)ccc2N2CC[C@H]1C2 [Example 598]
Tryp AVG EC1.5 (μM) [1]: B (B (EC1.5 1-25 μM))

Structure (SMILES): O=C(Nc1cc(OC[C@@H](O)CO)ccn1)N1c2nc(-c3cccc(C(F)(F)F)c3)ccc2N2CC[C@H]1C2 [(9S)-N-{4-[(2S)-2,3-dihydroxypropoxy]pyridin-2-yl}-5-[3-(trifluoromethyl)phenyl]-1,6,8-triazatricyclo[7.2.1.0 {2,7}]dodeca-2(7),3,5-triene-8-carboxamide]
TRP Activity (EC1.5) (Trp peptide assay): A (A (EC1.5<1 μM))
Emax [3]: > 150%

Structure (SMILES): Cc1nc(C)c(-c2ccc3c(n2)N(C(=O)Nc2cccnc2)[C@H]2CCN3C2)s1 [Example 495]
Tryp AVG EC1.5 (μM) [1]: B (B (EC1.5 1-25 μM))

Structure (SMILES): O=C(Nc1cccc(-c2cnco2)c1)N1c2nc(-c3cccc(C(F)(F)F)c3)ccc2N2C[C@@H](O)[C@H]1C2 [Example 665]
Tryp AVG EC1.5 (μM) [2]: A (A (EC1.5<1 μM))

Further lines, results first:

TRP Activity (EC1.5) (Trp peptide assay): B (B (EC1.5 1-25 μM))
Emax [3]: > 150%
Structure (SMILES): O=C(Nc1ccccn1)N1c2nc(N3CCC[C@H]3C(F)(F)F)ccc2N2CC[C@H]1C2 [(9S)-N-(pyridin-2-yl)-5-[(2S)-2-(trifluoromethyl)pyrrolidin-1-yl]-1,6,8-triazatricyclo[7.2.1.0 {2,7}]dodeca-2(7),3,5-triene-8-carboxamide]

Tryp AVG EC1.5 (μM) [1]: A (A (EC1.5<1 μM))
Structure (SMILES): O=C(Nc1cccnc1)N1c2nc(-c3cncc(C(F)(F)F)c3)ccc2N2CC[C@H]1C2 [Example 556]

Tryp AVG EC1.5 (μM) [1]: B (B (EC1.5 1-25 μM))
Structure (SMILES): N#Cc1cncc(-c2ccc3c(n2)N(C(=O)Nc2ccncn2)[C@H]2CCCN3C2)c1 [Example 558]

Tryp AVG EC1.5 (μM) [4]: B (B (EC1.5 1-25 μM))
Structure (SMILES): O=C(Nc1cnccn1)N1c2nc(-c3cc(Cl)cc(Cl)c3)ccc2N2CC[C@H]1C2 [Example 364]

TRP Activity (EC1.5) (Trp peptide assay): C (C (EC1.5>25 μM))
Emax [3]: < 150%
Structure (SMILES): Cc1cc(-c2ccc3c(n2)N(C(=O)NCCc2cccnc2)[C@H]2CCN3C2)ccn1 [(9S)-5-(2-methylpyridin-4-yl)-N-[2-(pyridin-3-yl)ethyl]-1,6,8-triazatricyclo[7.2.1.0 {2,7}]dodeca-2(7),3,5-triene-8-carboxamide hydrochloride]

Tryp AVG EC1.5 (μM) [1]: B (B (EC1.5 1-25 μM))
Structure (SMILES): Cc1ccc(-c2ccc3c(n2)N(C(=O)Nc2ccccn2)[C@H]2CCCN3C2)cn1 [Example 465]

TRP Activity (EC1.5) (Trp peptide assay): A (A (EC1.5<1 μM))
Emax [3]: > 150%
Structure (SMILES): O=C(Nc1cnccn1)N1c2nc(-c3ccnc(C4CC4)c3)ccc2N2CC[C@H]1C2 [(9S)-5-(2-cyclopropylpyridin-4-yl)-N-(pyrazin-2-yl)-1,6,8-triazatricyclo[7.2.1.0 {2,7}]dodeca-2,4,6-triene-8-carboxamide]

TRP Activity (EC1.5) (Trp peptide assay): B (B (EC1.5 1-25 μM))
Emax [3]: > 150%
Structure (SMILES): Cc1cc(-c2ccc3c(n2)N(C(=O)NCc2cccnc2)[C@H]2CCN3C2)ccn1 [(9S)-5-(2-methylpyridin-4-yl)-N-(pyridin-3-ylmethyl)-1,6,8-triazatricyclo[7.2.1.0 {2,7}]dodeca-2(7),3,5-triene-8-carboxamide]

Tryp AVG EC1.5 (μM) [4]: B (B (EC1.5 1-25 μM))
Structure (SMILES): O=C(Nc1ccccn1)N1c2nc(-c3cccc(C(F)(F)F)n3)ccc2N2CC[C@H]1C2 [Example 336]

TRP Activity (EC1.5) (Trp peptide assay): B (B (EC1.5 1-25 μM))
Emax [3]: > 150%
Structure (SMILES): Cn1ccc(-c2ccc3c(n2)N(C(=O)Nc2cnccn2)[C@H]2CCN3C2)cc1=O [(9S)-5-(1-methyl-2-oxo-1,2-dihydropyridin-4-yl)-N-(pyrazin-2-yl)-1,6,8-triazatricyclo[7.2.1.0^{2,7}]dodeca-2(7),3,5-triene-8-carboxamide]
